Reference: patent US4469786A (priority 1981, dated 1984)

What was measured:
[1] = test system: single-stranded .phi.105 DNA
DNA [2] = conditions: cited from earlier work
[3] = test system: Salmonella tester strains; conditions: literature (McCann, Bartsch, Glatt); cited from earlier work
DNA [4] = conditions: transformation-based assay of Phillips et al.; cited from earlier work
[5] = test system: replicative-form .phi.105DII:6C DNA; assay: gene linkage disruption in the marker rescue assay with .phi.105DII:6C DNA; conditions: PO, same conditions as Example 5 (25 to 100 mM)

SMILES: CC(=O)ON(C(C)=O)c1ccc2c(c1)Cc1ccccc1-2 [AAAF, N-acetyl-N-acetoxy-2-aminofluorine]
- frequency of clear PFU, earliest sample [1]: there appeared to be an increase in the frequency of clear PFU
- marker rescue activity, subsequent samples [1]: very rapid and extensive loss of marker rescue activity
- numbers of clear-plaque mutants generated ([1]; 35 mM AAAF, 37° C., 1-9 min., Hcr^+ recipient GB68, FIG. 6): increased with length of AAAF treatment
- frequency of clear-plaque mutants, subsequent samples ([1]; 35 mM AAAF, 37° C., subsequent samples, Hcr^- recipient GB7075): concomitant decrease in the frequency of clear-plaque mutants
- lesion in DNA / reactivity with DNA (DNA [2]): potent frameshift mutagen which forms two different guanine adducts

SMILES: O=CCCl [CAA, chloroacetaldehyde]
- lesion in DNA / reactivity with DNA (DNA [2]): reacts with adenines and cytosines to form imidazonucleoside derivatives

SMILES: ClC(Cl)(Cl)Cl [CCl4]
- mutagenicity in the Ames assay [3]: not mutagenic in the Ames assay

SMILES: ClC(Cl)Cl [CHCl3]
- mutagenicity in the Ames assay [3]: not mutagenic in the Ames assay

SMILES: ClC(Cl)=C(c1ccc(Cl)cc1)c1ccc(Cl)cc1 [DDE]
- mutagenicity in the Ames assay [3]: not mutagenic in the Ames assay

SMILES: NO [HA, hydroxylamine]
- marker rescue activity [1]: loss of marker rescue activity
- frequency of clear PFU/total PFU (capacity of treated DNA to generate clear-plaque mutants) ([1]; 1M HA, single-stranded DNA, 45° C., 0-60 minutes, GB68, FIG. 2): A time dependent increase in the capacity of the treated DNA to generate clear-plaque mutants
- lesion in DNA / reactivity with DNA (DNA [2]): induces predominantly guanine-cytosine to adenine-thymine transitions

SMILES: CC1CO1 (centres unmarked) [PO, propylene oxide]
- strand scission (DNA [4]): PO-induced strand scission which was observed
- disruption of linkage between J^+ allele and DII:6C mutation [5]: no significant disruption of linkage
- frequency of clear PFU at the highest concentration [1]: a decrease in the frequency of clear PFU
- marker rescue activity [1]: No consistent decrease in marker rescue activity
- significance (p) of increase in frequency of clear PFU [1]: < 0.001
- lesion in DNA / reactivity with DNA (DNA [2]): reacts with guanine and adenine residues but has also been claimed to react with the phosphodiester backbone of DNA producing strand scissions

SMILES: ClC1=C(Cl)[C@]2(Cl)[C@@H]3[C@@H]4C[C@@H]([C@H]5O[C@@H]45)[C@@H]3[C@@]1(Cl)C2(Cl)Cl [dieldrin]
- mutagenicity in the Ames assay [3]: not mutagenic in the Ames assay

SMILES: CC/C(=C(/CC)c1ccc(O)cc1)c1ccc(O)cc1 [diethylstilbestrol]
- mutagenicity in the Ames assay [3]: not mutagenic in the Ames assay
